Reference: publication PMC3418602 (2009)

Columns and labels:
Test in all cases: TR-FRET peptide phosphorylation kinase assay
Assay type in all cases: biochemical
JAK2 = JAK2 (Homo sapiens, UniProt O60674)
JAK3 = JAK3 (Homo sapiens, UniProt P52333)
JAK1 = JAK1 (Homo sapiens, UniProt P23458)
Chain of JAK1 (P23458 850-1154 limits assumed): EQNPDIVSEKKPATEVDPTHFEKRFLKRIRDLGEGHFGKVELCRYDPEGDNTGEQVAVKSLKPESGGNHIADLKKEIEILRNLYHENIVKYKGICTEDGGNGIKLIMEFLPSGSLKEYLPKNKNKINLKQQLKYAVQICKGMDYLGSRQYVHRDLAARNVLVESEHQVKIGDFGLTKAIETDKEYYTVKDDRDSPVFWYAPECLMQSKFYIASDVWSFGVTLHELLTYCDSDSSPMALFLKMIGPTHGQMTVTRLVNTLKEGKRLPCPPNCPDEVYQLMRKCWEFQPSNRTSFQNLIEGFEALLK

Chain of JAK2 (O60674 840-1132 limits assumed): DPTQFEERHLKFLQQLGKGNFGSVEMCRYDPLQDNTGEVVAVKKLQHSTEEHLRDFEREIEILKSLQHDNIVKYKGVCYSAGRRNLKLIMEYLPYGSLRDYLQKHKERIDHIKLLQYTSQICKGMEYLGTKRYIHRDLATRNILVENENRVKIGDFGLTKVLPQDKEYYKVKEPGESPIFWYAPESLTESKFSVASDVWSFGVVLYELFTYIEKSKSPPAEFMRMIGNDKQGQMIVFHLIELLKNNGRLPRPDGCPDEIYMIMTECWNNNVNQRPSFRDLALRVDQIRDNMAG
Chain of JAK3 (P52333 781-1124 limits assumed): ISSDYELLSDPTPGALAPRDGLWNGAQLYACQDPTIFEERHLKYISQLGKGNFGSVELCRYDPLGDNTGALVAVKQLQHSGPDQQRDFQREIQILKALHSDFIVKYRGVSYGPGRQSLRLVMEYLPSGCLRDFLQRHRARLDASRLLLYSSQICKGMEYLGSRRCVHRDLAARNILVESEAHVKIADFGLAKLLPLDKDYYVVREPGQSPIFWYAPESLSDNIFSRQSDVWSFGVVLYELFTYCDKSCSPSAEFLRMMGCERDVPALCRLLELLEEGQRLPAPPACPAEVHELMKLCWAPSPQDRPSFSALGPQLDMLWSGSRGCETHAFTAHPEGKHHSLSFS

- IC50 (JAK2): 11.2 µM
- IC50 (JAK3): 15.4 µM
- IC50 (JAK1): 10.2 µM
Structure (SMILES): N#C/C(=C\c1ccc(O)c(O)c1)C(=O)NCc1ccccc1 [AG490]
